# Paper PMC4191406, “Tumor-targeted in vivo gene silencing via systemic delivery of cRGD-conjugated siRNA” (Nucleic Acids Research, 2014)
# Assay: Serum cytokines by ELISA (innate immune response)
# Assay type: in vivo, athymic nude mice (nu/nu)
# Conditions: single injection 1 nmol, 6 and 24 h after the injection, n = 3, versus saline
# Method: Athymic nude female mice (nu/nu) were injected with 1 nmol (∼0.753 mg/kg; n = 3) of cRGD-siRNA or 1 nmol of cRGD alone (∼0.045 mg/kg; n = 3) in 150 μl of saline. Mice (n = 3) injected with saline alone (200 μl) were used as negative controls. Six hours and 24 h after the injection, 300 μl of blood was drawn from each mouse and the serum was collected. Levels of serum cytokines IFN-α, IFN-γ, IL-6 and IL-12 were determined by ELISA, following manufacturer's recommendations (eBioscience/Affymetrix, USA).
smiles,measurement,value
"N=C(N)NCCC[C@@H]1NC(=O)[C@H](CCCCNC(=O)COCCOCCNC(=O)CCN2C(=O)C=CC2=O)NC(=O)[C@@H](Cc2ccccc2)NC(=O)[C@H](CC(=O)O)NC(=O)CNC1=O [cRGD, cyclo(Arg-Gly-Asp-D-Phe-Lys[PEG-MAL])]","serum levels of interferons α and γ, interleukins 6 and 12",No significant difference
